Literature values in patent publication US12624058B2, “Promoiety strategy to enhance drug activity” (UNIVERSITY OF SOUTHERN CALIFORNIA, priority 2020, dated 2026).

Assays:
multiple Ad types = conditions: cell culture; read-out: EC50, replication of multiple Ad types
Ad5 = conditions: immunosuppressed Syrian hamster model
[1] = in vivo
[2] = in vivo; remark: listed apart in the source

Compound	EC50 (multiple Ad types) [nM]	efficacy against Ad5 replication and pathogenesis (Ad5)	nephrotoxicity [1]	GI side effect (Ad viremia; phase II clinical trial)	reduction of Ad viremia (Ad viremia; preemptive treatment, pediatric and adult patients)	oral bioavailability [2] [%]
CCCCCCCCCCCCCCCCOCCCOP(=O)(O)CO[C@H](CO)Cn1ccc(N)nc1=O [BCV]	~20	effective	little or no nephrotoxicity	symptomatic GI irritation was observed	reduced Ad viremia in some of these patients however, the result was not statistically significant	
Nc1ccn(C[C@@H](CO)OCP(=O)(O)O)c(=O)n1 [CDV, (S)-1-(3-hydroxy-2-phosphonomethoxypropyl)cytosine]		effective	causes nephrotoxicity			< 5
